Laboratory results taken from US8883010B2, “Polymer composition with phytochemical and dialysis membrane formed from the polymer composition” (The University of Akron, priority 2008, dated 2014).
Entries after “also recorded” stand apart in the source; their conditions may differ.

Key:
[1] = system: peripheral blood mononuclear cells (PBMC); assay: Cell viability (cytotoxicity) assay with 7-AAD dye and flow cytometry; type: cell-based; conditions: pure genistein, 25-500 μg/ml
Procedure: Cell viability assays were conducted to determine the effect of unmodified membranes, pure genistein and genistein modified membranes on whole blood. A nucleic acid dye, 7-Amino-actinomycin D (7-AAD), (BD-Via-Probe™ from BD Bioscience, CA) was used as a viability probe, which is based on uptake of 7-AAD. 7-AAD is a nucleic acid dye, which is designed in such a way that it cannot enter live cells. Fresh blood mixed with the dye was used as a negative control, whereas blood incubated with the membrane and/or genistein served as the experimental samples.
To perform the assays, 100 μl of fresh blood was pipetted into separate polypropylene tubes and mixed with 2 ml of ammonium chloride lysis buffer solution (containing 8.26 g ammonium chloride, 1 g potassium bicarbonate, and 0.037 g ethylenediamine-tetraacetic acid dissolved in 1 liter deionized water). The tubes were allowed to stand at room temperature for 10 min during which most of the red blood cells were lysed. The tubes were centrifuged at room temperature for 5 min at 1,800 rpm. […] The cells were resuspended with 500 μl of PBS and the cell suspension was analyzed using a flow cytometer (EPICS® XL-MCL™, Beckman Coulter, Calif., USA) equipped with System II™ software. […] The fluorescence signal from the dead cells was measured on the FL3 red channel (650 nm) with the flow cytometer.

[2] = system: reactive oxygen species (ROS) in neutrophils; assay: Modified DHR (dihydrorhodamine) assay of oxygen radical generation in PMA-stimulated whole blood; type: cell-based, human; conditions: for suppression of ROS levels (in words): pure antioxidant in DMSO, no membrane/polymer, 25-500 μg/ml
Procedure: In order to determine the effect of membranes and/or genistein on oxygen radical generation, the standard dihydrorhodamine (DHR) assay was modified as follows. The assay consisted of one positive control tube, several sample tubes and one negative control tube. The positive control tube contained 100 μl blood, 25 μl DHR, and 25 μl PMA; the total contents were made up to a total volume of 1 ml with PBS. The effect of oxygen radical generation is tested as follows, using the sample tube containing 100 μl blood, 25 μl DHR, 25 μl PMA and the appropriate sample (for example, unmodified membranes or pure genistein or genistein modified membranes). […] For the assay, two small circular samples (2×0.4 cm^2) were punched out from the cast films and placed inside the test tubes. After adding the membrane, the entire contents were incubated at 37° C. for 3 h (to simulate hemodialysis conditions) while being subjected to continuous shaking. After 3 h of incubation, the membrane samples were removed from the blood and agitated with 1 ml of PBS in order to dislodge the cells that were attached to the membrane. In the case of pure genistein (i.e., no membrane), the samples were prepared by dissolving genistein in DMSO over a wide range of concentration (25-500 μg/ml). The negative control tube contained 100 μl blood, 25 μl DHR, and the sample.
In order to normalize the data obtained from different set of experiments, the following formula was employed to express ROS level in percentage,
where the positive control represent 100% ROS and the negative control represent 0% ROS. The x, y, and z parameters represent the mean fluorescence signal obtained from the positive control, the negative control, and the samples, respectively.

Row | Compound | cytotoxicity to PBMC [1] | suppression of ROS levels (in words) [2] | reduction of the oxygen radicals ([2]; pure genistein in DMSO, no membrane)
1 | O=c1c(-c2ccc(O)cc2)coc2cc(O)cc(O)c12 [genistein, 5,7-dihydroxy-3-(4-hydroxyphenyl)chromen-4-one] | non-cytotoxic | dose-dependent reduction of ROS level; also recorded: suppress ROS levels significantly; also recorded: Suppression is greater than for Vitamin E | about 50%
2 | Vitamin E |  | Suppression is greater than for Vitamin E | 
